Measurements: US20110172301A1, “Use of anti-oxidant compounds for muscle recovery” (DSM IP ASSETS B.V., priority 2004, published 2011)

Experiments:
diaphragm muscle strips = experiment: Organ bath experiments: force of diaphragm strips after H2O2 incubation; parameters: species or system Male Lewis rats; conditions: all applied stimulation frequencies, compared with control; FIG. 1
Text: Male Lewis rats (age between 12 and 14 weeks old) were used. After decapitation, the diaphragm was rapidly excised, and small strips (around 2 mm width and 1 cm long) were cut and subsequently mounted in thermostated organ baths, containing Krebs buffer gassed with a mixture of 95% O2 and 5% CO2, pH 7.4. Each diaphragm strip was connected vertically to an isometric transducer. The composition of the Krebs buffer was (mM): NaCl (117.5), KCl (5.6), MgSO4 (1.18), CaCl2 (2.5), NaHPO4 (1.28), NaHCO3 (25) and glucose (5.5). During the experiment, the buffer was changed every 15 minutes. Field stimulation was created along the entire length of each muscle strip with platinum electrodes. At the beginning of the experiment, the strips were washed during 45 minutes at room temperature to minimize temperature dependent deterioration. Thereafter, the water bath was turned on at 37° C. (15 minutes before the start of the experiments). […] First the Pt (twitch tension at a stimulation of 1 Hz) and Po (maximal specific tension at a stimulation of 100 Hz, 250 ms duration) were determined. Thereafter, the response of the diaphragm muscle strips to increasing stimulus frequencies was assessed at Lo by the application of 10, 20, 33, 50 and 100 Hz-pulses applied in 250 ms trains. […] After that were again determined: Pt, Po, force-frequency and fatigue.

[1] = ONOOH scavenging (protection against ONOOH induced DHR-123 oxidation); assay type: biochemical; conditions: 50% inhibition of oxidation of DHR-123; 5 μM DHR-123, 0.7 μM ONOOH, pH 7.4, 37° C., n = 3; read-out: ONOO− scavenging activity, IC50 ± SEM
Description: The protection against ONOOH induced DHR-123 oxidation of the compounds was measured as described by Kooy et al (Peroxynitrite-mediated oxidation of dihydrorhodamine 123. Free Radic Biol Med, 16; 149-56). In short, 5 μM DHR-123 and various concentrations of a scavenger were incubated in 100 mM sodium phosphate buffer (pH 7.4) at 37° C. Subsequently, ONOOH was added by pipetting a 10 μl aliquot into the tube while rapid vortexing, reaching a final concentration of 0.7 μM. Fluorescence measurements were performed with excitation and emission wavelengths of respectively 500 and 536 nm. The effects are expressed as the concentration of the scavenger giving 50% inhibition of the oxidation of DHR-123 (IC50).

[2] = O2•- scavenging (xanthine/xanthine oxidase, NBT reduction); assay type: biochemical; conditions: 50% decrease in the reduction of NBT; xanthine 150 μM, XO 5.5 mU/ml, pH 7.8, 37° C., n = 3; read-out: O2•− scavenging activity, IC50 ± SEM
Description: O2•- were generated by the reaction of xanthine (150 μM) and xanthine oxidase (XO) (5.5 mU/ml) in 50 mM potassium phosphate buffer (pH 7.8). O2•-radicals were detected by nitroblue tetrazolium (NBT, 50 μM). NBT undergoes reduction by O2•- to its formazan. The rate of this reduction was monitored spectrophotometrically at 560 nm during 2 minutes. Various concentrations of a scavenger were added and incubated at 37° C. The reaction was started by the addition of XO. The O2•-scavenging potential is expressed as the concentration of the scavenger giving a 50% decrease in the reduction of NBT (IC50).
To adjust for a possible inhibitory effect of the scavenger on the activity of XO, the highest concentration of the scavenger was incubated at 37° C. and subsequently the rate of the urate formation was measured at 293 nm during 2 minutes.

OO [H2O2, hydrogen peroxide]
effect on muscle force (diaphragm muscle strips): dose-dependently reduces the force

OCCc1ccc(O)cc1 [Tyrosol]
IC50 [1]: 99 ± 16 µM
IC50 [2]: > 200 µM

O=C(O)CCCC[C@@H]1CCSS1 (racemic) [Lipoic acid, reference compound]
IC50 [1]: > 200 µM
IC50 [2]: > 100 µM

COc1cc(CCO)ccc1O [Homovanillic alcohol]
IC50 [1]: 6.6 ± 0.2 µM
IC50 [2]: > 200 µM
